Reference: patent US12660821B2, “Herbicide compositions with epyrifenacil and 2,4-D triethanolamine salt with improved properties” (MONSANTO TECHNOLOGY LLC, priority 2020, dated 2026)

Experiment: Partition coefficient of compound (A) between organic solvent and water (procedure G1, HPLC)
Format: physicochemical
Details: approx. 25° C.
Description: G1: General Experimental Procedure to Determine the Partition Coefficient of Compound (A) in Solvents
The experimental procedure for the respective solvent is as follows: (1) A solution of 10 g of compound (A) is prepared in 90 g of the respective solvent; (2) An aliquot of 10 g of the solution obtained in step (1) is added to 90 g of water in a glass bottle, which is shaken on a mechanical shaker for 4 hours at ambient temperature (approximately 25° C.); (3) The contents of the glass bottle are permitted to phase separate for 4 days at ambient temperature (approximately 25° C.); and (4) Subsamples of the resulting oil and water phases are taken and analyzed by HPLC to determine the concentrations of compound (A) in oil (Co) and water phases (Cw) respectively. The subsamples are typically centrifuged before HPLC analysis to remove traces of organic solvent from the water phase.
The partition coefficient, analogous to the octanol-water partition coefficient, P, is calculated as Co/Cw. The partition coefficient is conveniently expressed as a logarithm […]=log Co/Cw=P.
The ratio of determined concentrations of compound (A) in the solvent phase and the water phase typically is very large. […]

In the case of `CCOC(=O)COc1ncccc1Oc1cc(-n2c(=O)cc(C(F)(F)F)n(C)c2=O)c(F)cc1Cl` [compound (A), ethyl [3-[2-chloro-4-fluoro-5-(1-methyl-6-trifluoromethyl-2,4-dioxo-1,2,3,4-tetrahydropyrimidin-3-yl)phenoxy]-2-pyridyloxy]acetate], the “compound (A) in the water phase” value (Aromatic 200 ND as organic solvent) is reported as “undetectable” and the “compound (A) in the water phase” value (acetophenone as organic solvent) is reported as “undetectable”.
